From ChEMBL document CHEMBL3352337, “Scaffold-switching: an exploration of 5,6-fused bicyclic heteroaromatics systems to afford antituberculosis activity akin to the imidazo[1,2-a]pyridine-3-carboxylates” (Bioorg Med Chem Lett, 2014)
In brackets after ≈: the same amount, converted by molar mass.

Tests used:
[1] = tested on: Mycolicibacterium smegmatis; assay: Antimycobacterial activity against Mycobacterium smegmatis by broth microdilution assay; assay type: functional
Staphylococcus aureus = assay: Antimicrobial activity against Staphylococcus aureus by broth microdilution assay; assay type: functional
[2] = tested on: Mycobacterium tuberculosis; assay: Antitubercular activity against Mycobacterium tuberculosis H37Rv transfected with pFCA-luxAB in 7H12 medium after 10 days by low-oxygen recovery assay; assay type: functional; conditions: 240 h
Candida albicans = assay: Antimicrobial activity against Candida albicans by broth microdilution assay; assay type: functional
Mycobacterium avium = assay: Antimycobacterial activity against Mycobacterium avium ATCC 15769 in 7H9 medium after 6 days and 18 hrs after adding resazurin dye/Tween 80 by Microplate Alamar Blue assay; assay type: functional
Escherichia coli = assay: Antimicrobial activity against Escherichia coli by broth microdilution assay; assay type: functional
[3] = tested on: Mycobacterium tuberculosis; assay: Antitubercular activity against Mycobacterium tuberculosis H37Rv ATCC 27294 in glycerol-alanine-salts medium after 7 days by Microplate Alamar Blue assay; assay type: functional; conditions: H37Rv ATCC 27294, 168 h
Mycobacteroides chelonae = assay: Antimycobacterial activity against Mycobacterium chelonae ATCC 35752 in 7H9 medium after 3 days and 4 hrs after adding resazurin dye/Tween 80 by Microplate Alamar Blue assay; assay type: functional
Mycobacterium kansasii = assay: Antimycobacterial activity against Mycobacterium kansasii ATCC 12478 in 7H9 medium after 6 days and 18 hrs after adding resazurin dye/Tween 80 by Microplate Alamar Blue assay; assay type: functional
[4] = tested on: Mycobacteroides abscessus; assay: Antimycobacterial activity against Mycobacterium abscessus ATCC 19977 in 7H9 medium after 3 days and 4 hrs after adding resazurin dye/Tween 80 by Microplate Alamar Blue assay; assay type: functional
[5] = tested on: Mycobacterium tuberculosis; assay: Antitubercular activity against Mycobacterium tuberculosis H37Rv ATCC 27294 in 7H12 medium after 7 days by Microplate Alamar Blue assay; assay type: functional; conditions: H37Rv ATCC 27294, 168 h
Mycobacterium marinum = assay: Antimycobacterial activity against Mycobacterium marinum ATCC 927 in 7H9 medium after 5 days and 6 hrs after adding resazurin dye/Tween 80 by Microplate Alamar Blue assay; assay type: functional
Vero = assay: Cytotoxicity against African green monkey Vero cells assessed as cell viability after 72 hrs by CellTiter 96 assay; assay type: cell-based; conditions: Chlorocebus sabaeus

Row | Structure (SMILES) | MIC [1] [µM] | MIC (Staphylococcus aureus) [µM] | MIC90 [2] [µM] | MIC (Candida albicans) [µM] | MIC (Mycobacterium avium) [µM] | MIC (Escherichia coli) [µM] | MIC90 [3] [µM] | MIC (Mycobacteroides chelonae) [µM] | MIC (Mycobacterium kansasii) [µM] | MIC [4] [µM] | MIC90 [5] [µM] | MIC (Mycobacterium marinum) [µM] | IC50 (Vero) [µM]
1 | Cc1cc(C)n2nc(C(=O)NCc3ccccc3)nc2n1 | > 128 | > 128 | > 128 | > 128 | > 128 | > 128 | 126 | > 128 | > 128 | > 128 | > 128 | > 128 | > 128
2 | Cc1cc2nc(C)c(C(=O)OCc3ccccc3)n2c(C)n1 |  |  |  |  |  |  | 1.1 |  |  |  | 1.1 (≈ 0.325 µg/mL) |  | 
3 | Cc1ccc2nc(C)c(C(=O)NCc3ccccc3)n2c1 | > 128 | > 128 | > 128 | > 128 | 15.7 (≈ 4.39 µg/mL) | > 128 | 0.11 | 94 (≈ 26.3 µg/mL) | 4 (≈ 1.12 µg/mL) | > 128 | 0.49 (≈ 0.137 µg/mL) | > 128 | > 128
4 | Cc1ccc2nc(C)c(C(=O)OCc3ccccc3)n2c1 |  |  |  |  |  |  | 0.004 |  |  |  | 0.004 (≈ 0.00112 µg/mL) |  | 
5 | Cc1cnc2nc(C)c(C(=O)NCc3ccccc3)n2c1 | > 128 | > 128 | > 128 | > 128 | 122 (≈ 34.2 µg/mL) | > 128 | 1.27 | > 128 | 18.7 (≈ 5.24 µg/mL) | > 128 | 6.95 (≈ 1.95 µg/mL) | > 128 | > 128
6 | Cc1ccc2nc(C)c(C(=O)NCc3ccccc3)n2n1 | > 128 | > 128 | > 128 | > 128 | > 128 | > 128 | 63.8 | > 128 | > 128 | > 128 | > 128 | > 128 | 24.7
7 | Cc1ccc2c(C(=O)NCc3ccccc3)c(C)[nH]c2c1 | > 128 | > 128 | > 128 | > 128 | > 128 | > 128 | 43.8 | > 128 | > 128 | > 128 | > 128 | > 128 | > 128
8 | Cc1ccc2c(C(=O)NCc3ccccc3)n[nH]c2c1 | > 128 | > 128 | > 128 | > 128 | > 128 | > 128 | 40.8 | > 128 | > 128 | > 128 | > 128 | > 128 | > 128
9 | Cc1ccn2c(C(=O)NCc3ccccc3)nnc2c1 | > 128 | > 128 | > 128 | > 128 | > 128 | > 128 | 101 | > 128 | > 128 | > 128 | > 128 | > 128 | > 128
10 | Cc1ccn2c(C)c(C(=O)NCc3ccccc3)nc2c1 | > 128 | > 128 | > 128 | > 128 | > 128 | > 128 | 70 | > 128 | > 128 | > 128 | > 128 | > 128 | > 128
11 | Cc1cnc2nc(C)c(C(=O)OCc3ccccc3)n2c1 |  |  |  |  |  |  | 1.4 |  |  |  | 1.4 (≈ 0.394 µg/mL) |  | 
12 | Cc1cn2c(C(=O)OCc3ccccc3)c(C)nc2cn1 |  |  |  |  |  |  | 2.3 |  |  |  | 2.3 (≈ 0.647 µg/mL) |  | 
13 | NNC(=O)c1ccncc1 [ISONIAZID] |  |  |  |  | > 500 |  |  | > 500 | 9.1 (≈ 1.25 µg/mL) | > 500 |  | > 1000 | 
14 | COc1c(N2C[C@@H]3CCCN[C@@H]3C2)c(F)cc2c(=O)c(C(=O)O)cn(C3CC3)c12 [MOXIFLOXACIN] |  |  |  |  | 6.1 (≈ 2.45 µg/mL) |  |  | 0.24 (≈ 0.0963 µg/mL) | 0.12 (≈ 0.0482 µg/mL) | 22.4 (≈ 8.99 µg/mL) |  | 12.4 (≈ 4.98 µg/mL) | 
15 | O=[N+]([O-])c1cn2c(n1)OC[C@@H](OCc1ccc(OC(F)(F)F)cc1)C2 [PRETOMANID] |  |  | 4.9 (≈ 1.76 µg/mL) |  |  |  | 0.12 |  |  |  | 0.09 (≈ 0.0323 µg/mL) |  | > 128
16 | CO[C@H]1/C=C/O[C@@]2(C)Oc3c(C)c(O)c4c(O)c(c(/C=N/N5CCN(C)CC5)c(O)c4c3C2=O)NC(=O)/C(C)=C\C=C\[C@H](C)[C@H](O)[C@@H](C)[C@@H](O)[C@@H](C)[C@H](OC(C)=O)[C@@H]1C [RIFAMPIN] |  |  |  |  | < 0.78 |  | 0.11 | > 100 | 0.03 (≈ 0.0247 µg/mL) | 162 (≈ 133 µg/mL) | 0.06 (≈ 0.0494 µg/mL) | 1.2 (≈ 0.988 µg/mL) | 
